Experiments:
[1] = biological target: T1, kappa opioid receptor (KOR) (Homo sapiens, UniProt P41145); experiment: OPRKappa 1 Tango B-Arrestin Assay, antagonist mode (Tango OPRK1-bla U2OS cells, U50488 EC80 challenge); format: cell-based; settings: for Selectivity (MOR/KOR): Kappa selectivity, MOR IC50 / KOR IC50; for IC50: antagonist mode, Tango OPRK1-bla U2OS cells, 6 nM U50488 challenge
T1 construct: host or cells: U2OS (Tango OPRK1-bla U2OS)
Description: OPRKappa 1 Tango B-Arrestin Assay Protocol-Antagonist Mode. […] The assay uses Tango OPRK1-bla U2OS cells which express OPRK1 linked to a GAL4-VP16 transcription factor via a TEV protease site. The cells also express a β-arrestin/TEV protease fusion protein and a β-lactamase (BLA) reporter gene under the control of a UAS response element. Stimulation of the OPRK1 receptor by agonist causes migration of the β-arrestin fusion protein to the GPCR, and through proteolysis liberates GAL4-VP16 from the receptor. The liberated VP16-GAL4 migrates to the nucleus, where it induces transcription of the BLA gene. BLA expression is monitored by measuring fluorescence resonance energy transfer (FRET) of a cleavable, fluorogenic, cell-permeable BLA substrate. As designed, test compounds that are OPRK1 antagonists inhibit agonist activation and migration of the fusion protein, thus preventing proteolysis of GAL4-VP16 and BLA transcription, leading to no increase in well FRET. Compounds were tested in quadruplicate using a 10-point, 1:3 dilution series starting at a nominal concentration of 10 micromolar.
The Tango OPRK1-U20S Dividing cell line was routinely cultured in 150 mm dishes at 37C, 5% CO2 and 95% relative humidity (RH).
On Day 1 of the assay, 16,000 cells in 10 μL of assay media (DMEM-Glutamax—with Sodium Pyruvate, 10% fetal bovine serum stripped with charcoal-dextran (CDS), 25 mM HEPES, 0.1 mM non-essential amino acids, antibiotic mix (penicillin streptomycin)) were seeded into each well of a 384 Greiner 788092 black low profile, clear bottom, low volume plate, and incubated 16-24 hours at 37° C., 5% CO2 and 95% (RH).
On Day 2, 50 nL of test compound in DMSO was added to the appropriate wells and plates were incubated for 30 min at 37° C. 5% CO2 and 95% (RH). Next was added 0.65 μL of commercially available U50488 OPRK1 agonist or DMSO in assay media: this EC80 Challenge consists of 0.6 μL of 111 nM U50488 to yield a final assay concentration of 6 nM). After incubation for 4 hours at 37° C., 5% CO2 and 95% (RH), 2.5 μL of LiveBLazer™FRET B/G (CCF4-AM) Mix (Soln.'s A,B,C,&D) was added to each well and incubated at room temperature in the dark for 2 hours. Well fluorescence was measured on Perkin Elmer's Envision using an Excitation filter 409 nm, Emission filters at 460 nm and […], bottom read.
(§1) The Percent Inhibition was calculated from the median ratio as follows:
• Tango™OPRK1-bla U20S Cells (Invitrogen K1576) • McCoy's 5A Medium, (Invitrogen 16600-082) • Dialyzed Fetal Bovine Serum, (Invitrogen 26400-036) • Non Essential Amino Acids 100× (Invitrogen part 11140-050) • HEPES (pH 7.3) 1M, (Invitrogen 15630-080) • Sodium Pyruvate 100× (Invitrogen 11360-070) • Penicillin Streptomycin, (Invitrogen 15640) • Trypsin 0.25% EDTA (Invitrogen 25200056) • DPBS without Calcium/Magnesium (Invitrogen 14190-136) • DMEM, High Glucose, GlutaMAX (Invitrogen 10569-010) • Fetal Bovine Serum, Charcoal Stripped (Invitrogen 12676-011) • DMSO Dry (Sigma D2650) • U50488 OPRK1 Agonist MW410.29 (Tocris 67198-19-0) • GNTI dihydrochloride OPRK1 Antagonist MW571.5 (Tocris 1282) • Nor-Binaltorphimine dihydrochloridc MW770.75 (Tocris 0347)
LiveBLAzere™-FRET/BG Loading Mix: (Invitrogen K1030 (5 mg)), composed of Solutions A, B, C, and D: • Solution A (6 μL): LiveBLAzer™-FRET/BG Substrate (CCF4-AM) • Solution B (60 μL) • Solution C (904 μL) • Solution C (must add 250 μl of 1N NaOH to 45 mL of Solution C prior to use) • Solution D (30 μL) [Probinicid] (Sigma P8161) make 200 mM stock in NaOH—H2O.

mu opioid receptor (MOR) = biological target: T2, mu opioid receptor (MOR) (Homo sapiens, UniProt P35372); experiment: OPRMu1 Discover X β-arrestin Assay, antagonist mode (U2OS cells, DAMGO EC80 challenge); format: cell-based
T2 construct: host or cells: U2OS (Discover X OPRMu1-U2OS, PathHunter)
Description: OPRMu1 Discover X—β-arrestin Assay—Antagonist Mode. […] This assay evaluates the OPRMu1 activation in membrane recruitment of β-arrestin. In addition, the assay evaluates GPCR-β-arrestin proximity using low affinity fragment complementation of beta-galactosidase (beta-gal). The assay employs U20S cells, which express OPRMu1 fused to the complementary beta-gal fragment (enzyme acceptor). As designed, compounds that act as antagonists will prevent receptor activation resulting in reduced well luminescence. Compounds were tested in quadruplicate using a 10-point, 1:3 dilution series starting at a nominal concentration of 10 micromolar.
The Discover X OPRMu1-U20S cell line was cultured in 150 mm dishes at 37° C., 5% CO2 and 95% relative humidity (RH).
On Day 1 of the assay, 5000 cells in 20 μL of assay buffer (Discover X's Cell Plating Reagent 5) were seeded into each well of a 384 Corning 3570 standard white plate, and incubated 16-24 hours at 37° C., 5% CO2 and 95% RH.
On Day 2, 100 nL of test compound in DMSO were added to the appropriate wells and the plates were then incubated for 30 min at 37° C. 5% CO2 and 95% RH. Next, 2.2 μL of DAMGO OPRMu1 agonist (commercially available) or DMSO in assay media. (The EC80 Challenge consists of 1.8 μL of 3.7 μM DAMGO, 0.4 μL of Assay Buffer, with a final assay concentration of 303 nM). After incubation for 3 hours at 37° C. 5% CO2, and 95% RH, 10 μL of Path Hunter Detection Mix was added to each well, and the plate was then incubated at room temperature in the dark for 1 hour. Well luminescence was measured on Perkin Elmer's Envision.
as §1
• DMEM Medium, (Invitrogen 11965) • F12 Medium, (Invitrogen 11765) • Heat Inactivated Fetal Bovine Serum, (Invitrogen 10082147) • Non Essential Amino Acids 100× (Invitrogen 11140-050) • HEPES (pH 7.3) 1M, (Invitrogen 15630-080) • Sodium Pyruvate 100× (Invitrogen 11360-070) • Penicillin Streptomycin, (Invitrogen 15640) • Trypsin 0.25% EDTA (Invitrogen 25200056) • DPBS without Calcium/Magnesium (Invitrogen 14190-136) • DMSO Dry (Sigma D2650) • DAMGO OPRMu1 Agonist MW513.19 (Sigma E7384-5MG) • B-Funaltrexamine Hydrochloride OPRM1 Antagonist MW (SIGMA 0003-2MG) • PathHunter Cell Plating 5 Reagent (Discover X 93-0563R5A) • Corning 3750 Standard 384 well white plate with lid.
PathHunter Detection Mix (DiscoverX 93-0001): 1 part Galacton Star/5 parts Emerald II/19 parts PH Cell Assay Buffer.

T1 sequence (P41145 whole entry): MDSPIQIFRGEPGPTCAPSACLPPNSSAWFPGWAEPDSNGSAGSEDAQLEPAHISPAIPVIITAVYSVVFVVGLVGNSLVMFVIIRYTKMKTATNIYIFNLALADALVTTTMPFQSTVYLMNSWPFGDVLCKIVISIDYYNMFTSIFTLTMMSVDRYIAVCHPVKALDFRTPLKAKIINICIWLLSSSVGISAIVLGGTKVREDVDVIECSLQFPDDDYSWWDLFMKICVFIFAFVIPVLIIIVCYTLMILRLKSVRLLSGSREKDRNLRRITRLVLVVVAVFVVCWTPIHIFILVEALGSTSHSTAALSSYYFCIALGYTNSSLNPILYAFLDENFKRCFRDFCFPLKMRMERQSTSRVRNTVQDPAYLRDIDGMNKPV
T2 sequence (P35372 whole entry): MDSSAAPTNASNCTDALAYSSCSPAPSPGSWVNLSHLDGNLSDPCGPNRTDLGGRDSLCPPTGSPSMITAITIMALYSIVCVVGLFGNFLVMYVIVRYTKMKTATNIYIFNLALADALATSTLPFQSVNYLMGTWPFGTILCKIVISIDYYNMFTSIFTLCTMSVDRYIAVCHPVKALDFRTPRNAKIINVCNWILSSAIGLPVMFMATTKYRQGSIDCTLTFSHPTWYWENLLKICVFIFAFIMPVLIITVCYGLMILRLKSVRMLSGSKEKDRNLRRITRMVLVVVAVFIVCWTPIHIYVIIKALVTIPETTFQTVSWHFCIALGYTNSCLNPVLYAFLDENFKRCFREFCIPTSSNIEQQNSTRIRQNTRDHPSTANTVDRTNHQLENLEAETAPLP

| SMILES | Selectivity (MOR/KOR) [1] | IC50 [1] [nM] | IC50 (mu opioid receptor (MOR)) [nM] |
| --- | --- | --- | --- |
| CCc1cc(F)c2nc(N3CCN(C(=O)CN4CCCC4)C[C@H]3C)c(-c3ccn(C)n3)c(C)c2c1 [Compound 173] | +++ (between 100- to 1000-fold selective) | 1 to 10 | 100 to 1000 |
| CCc1cc(F)c2nc(N3CC[C@@H](N[C@@H]4CCOC4)[C@H](C)C3)c(-c3ccn(C)n3)c(C)c2c1 [Compound 110] | +++ (between 100- to 1000-fold selective) | 1 to 10 | > 1000 |
| CCc1cc(F)c2nc(N3CCC(N[C@H]4CCOC[C@H]4F)CC3)c(-c3cc(C)n(C)n3)c(C)c2c1 [Compound 5, 1-(3-(1,5-dimethyl-1H-pyrazol-3-yl)-6-ethyl-8-fluoro-4-methylquinolin-2-yl)-N-((3S,4S)-3-fluorotetrahydro-2H-pyran-4-yl)piperidin-4-amine] | +++ (between 100- to 1000-fold selective) | 1 to 10 | 100 to 1000 |
| CCc1cc(F)c2nc(N3CC[C@H](N[C@@H]4CCCOC4)C[C@H]3C)c(-c3ccn(C)n3)c(C)c2c1 [Compound 122] | +++ (between 100- to 1000-fold selective) | < 1 | 10 to 100 |
| CCN/C(=N/C#N)N1CCN(c2nc3c(F)cc(CC)cc3c(C)c2-c2ccn(C)n2)[C@H](C)C1 [Compound 10, (R,E)-N′-cyano-N-ethyl-4-(6-ethyl-8-fluoro-4-methyl-3-(1-methyl-1H-pyrazol-3-yl)quinolin-2-yl)-3-methylpiperazine-1-carboximidamide] | ++ (between 10- and 100-fold selectivity) | ≥ 100 | > 1000 |
| CCc1cc(F)c2nc(N3CC[C@H](N[C@@H]4CCOC4)[C@H](C)C3)c(-c3ccn(C)n3)c(C)c2c1 [Compound 107] | +++ (between 100- to 1000-fold selective) | 10 to 100 | > 1000 |
| CCc1cc(F)c2nc(N3CCN(CC4(O)CCOCC4)C[C@H]3C)c(-c3nc(C)no3)c(C)c2c1 [Compound 206] | ++++ (more than 1000-fold selectivity over MOR) | 1 to 10 | > 1000 |
| Cc1noc(-c2c(N3CCN(CC4CCOCC4)C[C@H]3C)nc3c(F)cc(Cl)cc3c2C)n1 [Compound 50, (R)-5-(6-chloro-8-fluoro-4-methyl-2-(2-methyl-4-((tetrahydro-2H-pyran-4-yl)methyl)piperazin-1-yl)quinolin-3-yl)-3-methyl-1,2,4-oxadiazole] | ++ (between 10- and 100-fold selectivity) | ≥ 100 | > 1000 |
| CCc1cc(F)c2nc(N3CCN(C(=O)CCN(C)C)C[C@H]3C)c(-c3nc(C)no3)c(C)c2c1 [Compound 43] | ++ (between 10- and 100-fold selectivity) | 10 to 100 | > 1000 |
| CCc1cc(F)c2nc(N3CCN(C(=O)[C@H](C)N4CCCC4)C[C@H]3C)c(-c3nc(C)no3)c(C)c2c1 [Compound 191] | ++++ (more than 1000-fold selectivity over MOR) | 1 to 10 | > 1000 |
| CCc1cc(-c2cnn(CCO)c2)c2nc(N3CCNC[C@H]3C)c(-c3nc(C)no3)c(C)c2c1 [Compound 106] | ++ (between 10- and 100-fold selectivity) | ≥ 100 | > 1000 |
| CCc1cc(F)c2nc(N3CCN(C(=O)[C@H]4CCCCN4C)C[C@H]3C)c(-c3nc(C)no3)c(C)c2c1 [Compound 189] | ++++ (more than 1000-fold selectivity over MOR) | 1 to 10 | > 1000 |
| CCc1cc(F)c2nc(N3CCC(N[C@@H]4CCOC[C@@H]4F)CC3)c(-c3cc(C)n(C)n3)c(C)c2c1 [Compound 14, 1-(3-(1,5-dimethyl-1H-pyrazol-3-yl)-6-ethyl-8-fluoro-4-methylquinolin-2-yl)-N-((3R,4R)-3-fluorotetrahydro-2H-pyran-4-yl)piperidin-4-amine] | +++ (between 100- to 1000-fold selective) | 1 to 10 | 100 to 1000 |
| CCc1cc(F)c2nc(N3CCC(NCC4(F)CC4)CC3)c(-c3cc(C)n(C)n3)c(C)c2c1 [Compound 19, 1-(3-(1,5-dimethyl-1H-pyrazol-3-yl)-6-ethyl-8-fluoro-4-methylquinolin-2-yl)-N-((1-fluorocyclopropyl)methyl)piperidin-4-amine] | +++ (between 100- to 1000-fold selective) | 1 to 10 | 100 to 1000 |
| CCc1cc(-c2ccn(C)n2)c2nc(N3CCC(N[C@H]4CCOC[C@@H]4F)CC3)c(-c3nc(C)no3)c(C)c2c1 [Compound 102] | ++++ (more than 1000-fold selectivity over MOR) | < 1 | > 1000 |
| CCc1cc(F)c2nc(N3CCN(CCC4CC(F)(F)C4)C[C@H]3C)c(-c3nc(C)no3)c(C)c2c1 [Compound 186] | +++ (between 100- to 1000-fold selective) | 1 to 10 | 100 to 1000 |
| CCc1cc(F)c2nc(N3CCN(C(=O)CN4CCC(F)(F)CC4)C[C@H]3C)c(-c3nc(C)no3)c(C)c2c1 [Compound 156] | ++ (between 10- and 100-fold selectivity) | 1 to 10 | 100 to 1000 |
